Experimental data: paper PMC12867150, “A fungi-derived cyclic peptide enhances Th9-mediated antitumor immunity by targeting ZAP70 and SREBP1” (The Journal of Clinical Investigation, 2025)
Values joined by “and” are separate entries in the source; they are usually repeats but may differ in a detail not shown here. Equal entries are not always repeated.

Tests used:
[1] = system: EpA-binding proteins in Th9 cell lysates; test: EpA-biotin pulldown and LC-MS/MS (Figure 5A, S7A-B); set-up: species or system mouse; conditions: result in words
Protocol: Cell lysates from Th9 cells were incubated overnight at 4 °C with EpA-biotin or biotin alone (control). Streptavidin-conjugated magnetic beads were added to capture biotinylated compounds and their interacting proteins. After washing, the bead-bound proteins were resolved by SDS-PAGE and visualized by silver staining. Distinct protein bands were excised, subjected to in-gel enzymatic digestion, and analyzed via liquid chromatography–tandem mass spectrometry (LC-MS/MS) to identify putative EpA-binding proteins.

endogenous CD4+ T cells = test: Flow cytometry of endogenous CD4+ T cells in spleen, LN, tumor (Figure 2D-E, S1F-H); type: in vivo, mouse; conditions: for Frequencies of endogenous CD4⁺ T cells in LN: Supplemental Figure 1G left; for Number of endogenous CD4⁺ T cells in LN: Supplemental Figure 1G right; for CD4 gate number: representative flow plot; for endogenous CD4 T cells (%) / number of endogenous CD4 T cells: individual mice, n = 4
Protocol: C57BL/6 mice were subcutaneously injected with 5 × 10^5 B16-OVA melanoma cells. Five days after tumor implantation, mice received an intravenous infusion of 2 × 10^6 in vitro–differentiated Th9 cells (cultured for 5 days), which were derived from OT-II CD45.1 donor mice, accompanied by 4 × 10^5 OVA peptide–pulsed DCs via the tail vein. To enhance T cell engraftment and facilitate lymphodepletion, a single intraperitoneal injection of cyclophosphamide (200 mg/kg, Sigma, catalog C0768) was administered 1 day prior to T cell transfer. Mice were euthanized at designated time points for the collection and analysis of spleens, tumor-draining lymph nodes, and tumor tissues.
Details regarding staining panels (human and mouse), reagents (including clones and catalog numbers), acquisition settings, compensation/controls, and analysis procedures are provided in Supplemental Methods.
BioLegend, Cat. No. 422301 or Mouse TruStain FcX™, BioLegend, Cat. No. 101319) for 10 minutes at 4°C. For surface marker detection, cells were stained with fluorochrome-conjugated monoclonal antibodies in 96-well V-bottom plates and incubated on ice for 30 minutes. After staining, cells were washed twice and resuspended in FACS buffer for analysis.
Prior to intracellular cytokine staining, cells were restimulated for 4 hours with PMA (Absin, Cat. No. abs9107), ionomycin (Sigma-Aldrich, Cat. No. I0634), and brefeldin A (MedChemExpress, Cat. No. HY-16592). For intracellular cytokine staining, cells were first surface-stained as described above, then fixed and permeabilized using the BD Cytofix/Cytoperm™ kit (BD Biosciences, Cat. No. 554714) according to the manufacturer ’s protocol. Intracellular proteins were stained with directly conjugated antibodies targeting IL-9, IL-17a, IL-4, IFN-γ, TNF-α, FOXP3, p-ZAP70, Perforin, and […]
Antibodies used for mouse samples included those against IL-9 (PE, clone RM9A4, Biolegend, Cat. No. 514104), IFN-γ (PE, clone XMG1.2, Biolegend, Cat. No.
Cat. No. 103138), CD4 (APC/Cy7, clone E-AB-F1353UJ, Elabscience, Cat. No.
AF18028), CD8α (PerCP/Cy5.5, clone E-AB-F1104UJ, Elabscience, Cat. No. […]
clone E-AB-F1187UH, Elabscience, Cat. No. AF19854), TNF-α (BV421, clone MP6-XT22, Biolegend, Cat. No. 506328), FOXP3 (PE, clone FJK-16s, eBioscience, Cat. No.
Perforin (APC, clone S16009A, Biolegend, Cat. No. 154303) and Granzyme B (APC, […]
clone QA16A02, Biolegend, Cat. No. 372203). […]
Figure S1. EpA enhances immune responses. […]
I) Representative flow-cytometric plots of endogenous CD4⁺ and CD8⁺ T cells in spleens (F), LNs (G), and tumors (H); frequencies and absolute numbers of endogenous CD4⁺ (G) and CD8⁺ (I) T cells in LNs are quantified. (J and K) […]
Statistical analysis was performed using two-way ANOVA with Tukey’s post hoc test (A), one-way ANOVA with Tukey’s post hoc test (B) or two-tailed unpaired Student’s t-test (D and G–M). ns, not significant. *p < 0.05, **p < 0.01, ****p < 0.0001.
(also on this page, place not known: Mouse weight (g) CtrlEpA CtrlEpA CtrlEpA0 I CD45.1+ T cells (%) CtrlEpA CD4+ T cells (%) CtrlEpA CtrlEpA CtrlEpA FSC CD8 CD8 FSC FSC FSC BNumber of CD45.1+ T cells (×103 per mgĎ Number of CD4+ T cells (×104 per mgĎ DC (%)NK cells (%) NK cells (%) DC (%) Number of DC (×103 per mg) Number of NK cells (×105) Number of NK cells (×103 per mg) Number of DC (×105) FSC FSC FSC CD8 CtrlEpA CtrlEpA CtrlEpA CD8+ T cells (%) Number of CD8+ T cells (×104 per mgĎ nsns ns nsns ns 40 IL-6 (pg/ml)) […]

human Th9 CAR T cells = test: IL-9 in human Th9 CAR T cells (S9D-E); type: cell-based; conditions: for IL-9 expression in human Th9 CAR-T cells: Supplemental Figure 9E; for IL-9 gate number: representative flow plot, Figure S9D
Excerpt: Details regarding staining panels (human and mouse), reagents (including clones and catalog numbers), acquisition settings, compensation/controls, and analysis procedures are provided in Supplemental Methods. […]
(C) Flow-cytometric analysis of infection efficiency in Th9 cells transduced with a CD19-directed CAR lentivirus. (D and E) Flow-cytometric analysis of IL-9 expression in human Th9 CAR-T cells on days 5 and 6 of in vitro differentiation, showing representative plots (D) and quantification (E) (n = 3). […]
(H) and quantification (I) (n = 5 mice per group). Statistical analysis was performed using one-way ANOVA with Tukey’s post hoc test (A and B), or two-tailed unpaired Student’s t-test (E–G, and I). Repeated data are presented as mean ± SEM. *p < 0.05, […]
(also on this page, place not known: TP cells ANOV A 30IL-9+ cells (%) Fato Fato Fato Fato A SSC GzmB CtrlEpA MFIofMitoTracker (×102) GF NormalizedATPlevel CtrlEpA 4MFI of Mito Tracker (×105) CtrlEpA0 GzmB+ cells (%) CD4 10 20 IL-9+ cells (%) Day60 10 20 30 Ctrl) […]

With anteiso-C15 Leu7 surfactin [EpA] the “EpA pulldown, ZAP70” value [1] was “top candidate”, the “Frequencies of endogenous CD4⁺ T cells in LN” value (shortened to “Frequencies … in LN”) (endogenous CD4+ T cells; LN, replicate 1) was 32.6 and the “Frequencies … in LN” value (endogenous CD4+ T cells; LN, replicate 2) was 26.4. For the same substance, the “Frequencies … in LN” value (endogenous CD4+ T cells; LN, replicate 3) was 36, the “Frequencies … in LN” value (endogenous CD4+ T cells; LN, replicate 4) was 26 and the “Number of endogenous CD4⁺ T cells in LN” value (endogenous CD4+ T cells; LN, replicate 1) was 43261. For the same substance, the “Number of endogenous CD4⁺ T cells in LN” value (endogenous CD4+ T cells; LN, replicate 2) was 37630, the “Number of endogenous CD4⁺ T cells in LN” value (endogenous CD4+ T cells; LN, replicate 3) was 15416 and the “Number of endogenous CD4⁺ T cells in LN” value (endogenous CD4+ T cells; LN, replicate 4) was 15595.7. For the same substance, the CD4 gate number (endogenous CD4+ T cells; LN, Figure S1G) was 36.0, the CD4 gate number (endogenous CD4+ T cells; Spleen, Figure S1F) was 26.1 and the CD4 gate number (endogenous CD4+ T cells; Tumor, Figure S1H) was 15.2. The “endogenous CD4+ T cell frequency and number” value (endogenous CD4+ T cells; spleens, lymph nodes, tumors, result in words) was “minimal changes”, the “endogenous CD4 T cells (%)” value (endogenous CD4+ T cells; spleens) was 30.3% and 32.9% and 35.5% and 26.1% and the “number of endogenous CD4 T cells” value (endogenous CD4+ T cells; spleens) was 1093264 and 1018812 and 1081910 and 535955. For the same substance, the “endogenous CD4 T cells (%)” value (endogenous CD4+ T cells; tumors) was 15.2% and 16.6% and 24% and 21.6%, the “number of endogenous CD4 T cells” value (endogenous CD4+ T cells; tumors) was 158 and 294 and 393 and 62 and the “IL-9 expression in human Th9 CAR-T cells” value (human Th9 CAR T cells; Day5, replicate 1) was 27.7. The “IL-9 expression in human Th9 CAR-T cells” value (human Th9 CAR T cells; Day5, replicate 2) was 21.8, the “IL-9 expression in human Th9 CAR-T cells” value (human Th9 CAR T cells; Day5, replicate 3) was 25.1 and the IL-9 gate number (human Th9 CAR T cells; Day5) was 24.8. For the same substance, the “IL-9 expression in human Th9 CAR-T cells” value (human Th9 CAR T cells; Day6, replicate 1) was 6.55, the “IL-9 expression in human Th9 CAR-T cells” value (human Th9 CAR T cells; Day6, replicate 2) was 6.68 and the “IL-9 expression in human Th9 CAR-T cells” value (human Th9 CAR T cells; Day6, replicate 3) was 6.84. For the same substance, the IL-9 gate number (human Th9 CAR T cells; Day6) was 6.7 and the “IL-9 production, Th9 CAR T” value (human Th9 CAR T cells; result in words) was “increased IL-9 production”.
